Read-outs that look alike come from different tables or passages of the source.
Target: T1, human Bradykinin B1 receptor (Homo sapiens, UniProt P46663)
T1 construct: host or cells: CHO-K1
T1 sequence (P46663 1-353): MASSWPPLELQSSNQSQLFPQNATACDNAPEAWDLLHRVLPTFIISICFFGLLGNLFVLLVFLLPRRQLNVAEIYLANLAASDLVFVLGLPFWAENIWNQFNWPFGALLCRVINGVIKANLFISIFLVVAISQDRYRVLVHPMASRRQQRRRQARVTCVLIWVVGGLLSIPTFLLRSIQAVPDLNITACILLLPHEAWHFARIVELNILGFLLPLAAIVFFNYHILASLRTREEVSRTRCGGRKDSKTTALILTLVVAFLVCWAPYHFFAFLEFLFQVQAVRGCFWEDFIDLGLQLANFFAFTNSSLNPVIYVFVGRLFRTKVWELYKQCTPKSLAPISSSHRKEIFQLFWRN
Assay: Calcium flux Assay (FLIPR) with recombinant CHO-K1 cells expressing human Bradykinin B1 receptor, in presence (hB1 IC50) or absence (hB1 free IC50) of 0.1% BSA
Format: cell-based

[1] = in presence of 0.1% BSA, read-out: hB1 IC50
[2] = in absence of 0.1% BSA, read-out: hB1 free IC50

| SMILES | IC50 [1] [nM] | IC50 [2] [nM] |
| --- | --- | --- |
| COc1ccc(-c2cc(F)c(NC(=O)C3(c4cc(Cl)ccc4F)CC3)cc2-c2nnn[nH]2)cc1 [Example 229, 1-(5-Chloro-2-fluorophenyl)-N-[5-fluoro-4′-methoxy-2-(1H-tetrazol-5-yl)biphenyl-4-yl]cyclopropane carboxamide] | 1280 | – |
| COc1ccc(-c2cc(F)c(NC(=O)C3(c4ccc(F)c(Cl)c4)CC3)cc2-c2nnn[nH]2)cc1C [Example 230, 1-(3-Chloro-4-fluorophenyl)-N-[5-fluoro-4′-methoxy-3′-methyl-2-(1H-tetrazol-5-yl)biphenyl-4-yl]cyclopropane-carboxamide] | 2100 | – |
| COc1ccc(-c2cc(F)c(NC(=O)C3(c4ccc(Cl)cc4F)CC3)cc2-c2nnn[nH]2)cc1C [Example 231, 1-(4-Chloro-2-fluorophenyl)-N-[5-fluoro-4′-methoxy-3′-methyl-2-(1H-tetrazol-5-yl)biphenyl-4-yl]cyclopropane carboxamide] | 2200 | – |
| Cc1cc(-c2c(F)cc(NC(=O)C3(c4cccc(Cl)c4)CC3)cc2-c2nnn[nH]2)ccn1 [Example 246, 1-(3-chlorophenyl)-N-[3-fluoro-4-(2-methylpyridin-4-yl)-5-(1H-tetrazol-5-yl)phenyl] cyclopropane carboxamide] | – | 16 |
| O=C(Nc1ccc(-c2cnc(C(F)(F)F)nc2)c(-c2nnn[nH]2)c1)C1(c2ccc(Cl)c(F)c2)CC1 [Example 251, 1-(4-chloro-3-fluorophenyl)-N-{3-(1H-tetrazol-5-yl)-4-[2-(trifluoromethyl)pyrimidin-5-yl]phenyl} cyclopropane-carboxamide] | – | 227 |
| O=C(Nc1ccc(-c2cnc(C(F)(F)F)nc2)c(-c2nnn[nH]2)c1)C1(c2ccc(Cl)cc2F)CC1 [Example 252, 1-(4-chloro-2-fluorophenyl)-N-{3-{1H-tetrazol-5-yl)-4-[2-(trifluoromethyl)pyrimidin-5-yl]phenyl} cyclopropane-carboxamide] | – | 92.8 |

Results, then the molecule that gave them:

| IC50 [1] [nM] | IC50 [2] [nM] | SMILES |
| --- | --- | --- |
| 53.6 | – | COc1ccc(-c2c(F)cc(NC(=O)C3(c4ccc(F)cc4F)CC3)cc2-c2nnn[nH]2)cc1OC [Example 235, 1-(2,4-Difluorophenyl)-N-[2-fluoro-3′,4′-dimethoxy-6-(1H-tetrazol-5-yl)biphenyl-4-yl]cyclopropane carboxamide] |
| 1760 | – | CCOc1ccc(-c2cc(C)c(NC(=O)C3(c4cccc(Cl)c4)CC3)cc2-c2nnn[nH]2)cc1OC [Example 249, 1-(3-Chlorophenyl)-N-[4′-ethoxy-3′-methoxy-5-methyl-2-(1H-tetrazol-5-yl)biphenyl-4-yl]cyclopropane carboxamide] |
| 240 | – | COc1ccc(-c2c(C)cc(NC(=O)C3(c4cccc(Cl)c4)CC3)cc2-c2nnn[nH]2)cc1OC [Example 250, 1-(3-Chlorophenyl)-N-[3′,4′-dimethoxy-2-methyl-6-(1H-tetrazol-5-yl)biphenyl-4-yl]cyclopropane carboxamide] |
| 245 | 309 | CCOc1ccc(-c2ccc(NC(=O)C3(c4cc(F)ccc4C)CC3)cc2-c2nnn[nH]2)cn1 [Example 254, N-[4-(6-ethoxypyridin-3-yl)-3-(1H-tetrazol-5-yl)phenyl]-1-(5-fluoro-2-methylphenyl)cy-clopropanecar-boxamide] |
| 452 | 702 | COc1ccc(-c2ccc(NC(=O)C3(c4cc(F)ccc4C)CC3)cc2-c2nnn[nH]2)cc1OC [Example 255, N-[3′,4′-dimethoxy-2-(1H-tetrazol-5-yl)biphenyl-4-yl]-1-(5-fluoro-2-methylphenyl)cy-clopropanecar-boxamide] |
| 274 | 288 | CCOc1ccc(-c2ccc(NC(=O)C3(c4cccc(F)c4C)CC3)cc2-c2nnn[nH]2)cn1 [Example 256, N-[4-(6-ethoxypyridin-3-yl)-3-(1H-tetrazol-5-yl)phenyl]-1-(3-fluoro-2-methylphenyl)cy-clopropanecar-boxamide] |
| 916 | – | COc1ccc(-c2ccc(NC(=O)C3(c4cccc(F)c4C)CC3)cc2-c2nnn[nH]2)cc1OC [Example 257, N-[3′,4′-dimethoxy-2-(1H-tetrazol-5-yl)biphenyl-4-yl]-1-(3-fluoro-2-methylphenyl)cy-clopropanecar-boxamide] |
